From US12686689B2, “HPK1 inhibitor, preparation method therefor and use thereof” (WIGEN BIOMEDICINE TECHNOLOGY (SHANGHAI) CO., LTD., priority 2020, dated 2026)

Legend:
HPK1 = HPK1 (Homo sapiens, UniProt Q92918); assay: Inhibitory effect against enzyme activity of HPK1 (lantha Screen, PKC substrate); type: biochemical; conditions: class symbols defined as IC50 ranges, read-out: Inhibition rate (%)
Procedure: Example 130: Assay of Inhibitory Effect of Compound Against Enzyme Activity of HPK1
The inhibitory effect of the compound against the enzyme activity of HPK1 was determined by using a lantha Screen method with PKC as a substrate. The process comprises the following specific steps: the HPK1 protein was incubated with the serially-diluted compound at 28° C. for 10 min followed by addition of fluoroescein-labeled PKC substrate and ATP to react for 90 min. After termination of the reaction, a Terbium-labeled antibody against phosphorylated PKC was added and incubated for 60 min. The energy transfer of Teribium and fluoroscein was monitored by detecting luminescence at 520 nm and 450 nm to quantify PKC as the level of phosphorylation of […]. Inhibition % and IC50 of the compound were calculated compared to the control group.

hERG potassium channel = target: T1, hERG potassium channel (Homo sapiens, UniProt Q12809); assay: Inhibitory effect against hERG channel activity (manual patch clamp, HEK293 cells stably expressing hERG); type: cell-based; conditions: HEK293 cell line stably expressing hERG
T1 construct: expressed in transfected cells; host or cells: HEK293
Procedure: Example 131: Assay of Inhibitory Effect of Compound Against hERG Channel Activity
The HEK293 cell line stably expressed by the hERG potassium channel was adopted for detection using manual patch clamp. Firstly, the HEK293 cell line stably expressed by the hERG potassium channel was separated and laid on a cover glass before the patch clamp detection test, and the test detection was carried out after culture for 18 h. Then a capillary glass tube was drawn into a recording electrode, and the recording electrode was contacted onto the cells under an inverted microscope to form a whole-cell recording mode. After necessary compensation and recording of the membrane capacitance and series resistance, current recording was performed according to the set current stimulation protocol. After the hERG current stabilized, administration was started and the current detected in compound-free extracellular fluid for each cell served as its own control group, and multiple cells were repeatedly tested independently. The current acted for each drug concentration and the current of the blank control were standardized, then the inhibition rate corresponding to each drug concentration was calculated, and finally the half-inhibition concentration IC50 value of each compound was calculated.

Chain of HPK1 (Q92918 whole entry): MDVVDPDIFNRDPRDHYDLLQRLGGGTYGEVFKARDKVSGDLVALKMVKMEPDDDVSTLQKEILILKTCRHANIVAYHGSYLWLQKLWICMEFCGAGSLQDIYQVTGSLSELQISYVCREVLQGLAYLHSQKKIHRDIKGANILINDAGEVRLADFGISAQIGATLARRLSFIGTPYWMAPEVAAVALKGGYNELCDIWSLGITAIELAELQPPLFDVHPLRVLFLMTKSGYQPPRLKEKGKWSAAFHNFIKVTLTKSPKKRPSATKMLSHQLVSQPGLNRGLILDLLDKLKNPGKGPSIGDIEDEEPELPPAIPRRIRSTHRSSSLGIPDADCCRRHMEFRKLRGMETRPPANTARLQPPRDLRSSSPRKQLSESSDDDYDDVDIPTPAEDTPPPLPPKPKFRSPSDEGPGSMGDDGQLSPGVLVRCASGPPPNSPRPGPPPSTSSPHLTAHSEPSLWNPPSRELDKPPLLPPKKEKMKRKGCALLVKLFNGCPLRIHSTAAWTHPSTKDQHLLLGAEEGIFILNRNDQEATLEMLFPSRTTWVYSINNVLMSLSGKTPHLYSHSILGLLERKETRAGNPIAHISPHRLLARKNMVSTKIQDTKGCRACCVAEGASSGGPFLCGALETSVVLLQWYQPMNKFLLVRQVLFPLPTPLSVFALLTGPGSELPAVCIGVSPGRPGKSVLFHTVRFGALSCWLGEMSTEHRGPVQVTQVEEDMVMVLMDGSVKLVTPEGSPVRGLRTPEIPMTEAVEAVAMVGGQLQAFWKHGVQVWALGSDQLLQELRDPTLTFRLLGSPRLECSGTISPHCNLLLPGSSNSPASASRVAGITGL
T1 sequence (Q12809 whole entry): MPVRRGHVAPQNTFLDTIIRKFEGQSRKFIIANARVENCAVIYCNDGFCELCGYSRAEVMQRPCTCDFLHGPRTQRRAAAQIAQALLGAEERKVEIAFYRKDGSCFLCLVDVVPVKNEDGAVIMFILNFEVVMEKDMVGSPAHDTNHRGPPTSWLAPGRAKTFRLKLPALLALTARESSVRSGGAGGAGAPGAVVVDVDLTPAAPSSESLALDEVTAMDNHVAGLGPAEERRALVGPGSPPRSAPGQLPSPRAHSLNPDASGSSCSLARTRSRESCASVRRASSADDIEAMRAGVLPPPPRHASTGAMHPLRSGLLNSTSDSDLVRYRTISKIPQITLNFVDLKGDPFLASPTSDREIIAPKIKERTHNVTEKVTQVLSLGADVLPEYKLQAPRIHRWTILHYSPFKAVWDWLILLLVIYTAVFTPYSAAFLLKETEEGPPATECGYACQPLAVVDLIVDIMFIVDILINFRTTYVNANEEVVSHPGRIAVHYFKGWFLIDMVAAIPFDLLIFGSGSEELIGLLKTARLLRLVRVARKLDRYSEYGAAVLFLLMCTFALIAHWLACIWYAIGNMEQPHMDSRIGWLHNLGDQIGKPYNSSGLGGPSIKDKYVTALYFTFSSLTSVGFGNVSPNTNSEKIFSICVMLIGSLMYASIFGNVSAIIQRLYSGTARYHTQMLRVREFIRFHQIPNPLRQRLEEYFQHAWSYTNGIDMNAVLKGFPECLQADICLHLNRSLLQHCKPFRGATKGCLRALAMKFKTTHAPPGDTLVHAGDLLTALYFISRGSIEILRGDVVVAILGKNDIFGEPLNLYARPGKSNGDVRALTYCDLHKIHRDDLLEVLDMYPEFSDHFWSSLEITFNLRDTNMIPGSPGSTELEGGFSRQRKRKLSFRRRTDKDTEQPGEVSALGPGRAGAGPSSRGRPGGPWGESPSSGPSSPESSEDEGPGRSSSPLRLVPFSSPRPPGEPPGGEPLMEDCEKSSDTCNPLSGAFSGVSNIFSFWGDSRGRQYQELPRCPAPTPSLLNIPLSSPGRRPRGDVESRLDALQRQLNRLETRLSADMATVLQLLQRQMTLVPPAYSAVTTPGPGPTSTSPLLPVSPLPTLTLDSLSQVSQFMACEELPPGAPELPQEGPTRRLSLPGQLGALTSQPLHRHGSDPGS

COc1cccc(F)c1-c1cc2c(-c3ccc4c(c3)OCC3CN(C)CCN43)n[nH]c2cc1C#N (stereo not shown) [Compound 6]
IC50 (HPK1): ≤ 10 nM | IC50 (hERG potassium channel): 17800 nM

COc1ccc(F)c(F)c1-c1cc2c(-c3ccc4c(c3)OCC3CN(C)CCN43)n[nH]c2cc1C#N (stereo not shown) [Compound 16]
IC50 (HPK1): ≤ 10 nM | IC50 (hERG potassium channel): 23600 nM

CNCc1cc(F)c(-c2cc3c(-c4ccc5c(c4)OCC4CN(C)CCN54)n[nH]c3cc2C#N)c(F)c1 (stereo not shown) [Compound 18]
IC50 (HPK1): ≤ 10 nM | IC50 (hERG potassium channel): 11800 nM

CN1CCN2c3ccc(-c4n[nH]c5cc(C#N)c(-c6c(F)cc(C(=O)N7CC(N(C)C)C7)cc6F)cc45)cc3OCC2C1 (stereo not shown) [Compound 35]
IC50 (HPK1): ≤ 10 nM | IC50 (hERG potassium channel): 31800 nM

Cc1n[nH]cc1-c1cc2c(-c3ccc4c(c3)OCC3CN(C)CCN43)n[nH]c2cn1 (stereo not shown) [Compound 72]
IC50 (HPK1): ≤ 10 nM

COc1ccc(C#N)c(F)c1-c1cc2c(-c3ccc4c(c3)OCC3CN(C)CCN43)n[nH]c2cn1 (stereo not shown) [Compound 74]
IC50 (HPK1): 10 to 100 nM

COc1c(F)ccc(F)c1-c1cc2c(-c3ccc4c(c3)OCC3CN(C)CCN43)n[nH]c2cn1 (stereo not shown) [Compound 75]
IC50 (HPK1): 10 to 100 nM

CN1CCN2c3ccc(-c4n[nH]c5cnc(-c6ccc(C(=O)N7CC(N(C)C)C7)cc6)cc45)cc3OCC2C1 (stereo not shown) [Compound 76]
IC50 (HPK1): 10 to 100 nM

CN1CCN2c3ccc(-c4n[nH]c5cnc(-c6cccn7ccnc67)cc45)cc3OCC2C1 (stereo not shown) [Compound 77]
IC50 (HPK1): ≤ 10 nM

CN1CCN2c3ccc(-c4n[nH]c5cnc(-c6cnn7ccccc67)cc45)cc3OCC2C1 (stereo not shown) [Compound 78]
IC50 (HPK1): ≤ 10 nM

COc1cccc(F)c1-c1ncc2[nH]nc(-c3ccc4c(c3)OCC3CN(C)CCN43)c2n1 (stereo not shown) [Compound 79]
IC50 (HPK1): 10 to 100 nM

CNCc1cc(C)c(-c2ncc3[nH]nc(-c4ccc5c(c4)OCC4CN(C)CCN54)c3n2)c(F)c1 (stereo not shown) [Compound 80]
IC50 (HPK1): 10 to 100 nM

CNCc1cc(F)c(-c2ncc3[nH]nc(-c4ccc5c(c4)OCC4CN(C)CCN54)c3n2)c(F)c1 (stereo not shown) [Compound 81]
IC50 (HPK1): 10 to 100 nM

COc1cccc(F)c1-c1nc2c(-c3ccc4c(c3)OCC3CN(C)CCN43)n[nH]c2cc1C#N (stereo not shown) [Compound 82]
IC50 (HPK1): 10 to 100 nM

CNCc1cc(C)c(-c2nc3c(-c4ccc5c(c4)OCC4CN(C)CCN54)n[nH]c3cc2C#N)c(F)c1 (stereo not shown) [Compound 83]
IC50 (HPK1): ≤ 10 nM

CNCc1cc(F)c(-c2nc3c(-c4ccc5c(c4)OCC4CN(C)CCN54)n[nH]c3cc2C#N)c(F)c1 (stereo not shown) [Compound 84]
IC50 (HPK1): ≤ 10 nM

COc1cccc(F)c1-c1ccc2[nH]nc(-c3ccc4c(c3)OCC3CN(C)CCN43)c2n1 (stereo not shown) [Compound 85]
IC50 (HPK1): 10 to 100 nM

CNCc1cc(C)c(-c2ccc3[nH]nc(-c4ccc5c(c4)OCC4CN(C)CCN54)c3n2)c(F)c1 (stereo not shown) [Compound 86]
IC50 (HPK1): 10 to 100 nM

CNCc1cc(F)c(-c2ccc3[nH]nc(-c4ccc5c(c4)OCC4CN(C)CCN54)c3n2)c(F)c1 (stereo not shown) [Compound 87]
IC50 (HPK1): 10 to 100 nM

COc1cccc(F)c1-c1cc2c(-c3ccc4c(c3)OCC3CN(C)CCN43)c[nH]c2cn1 (stereo not shown) [Compound 88]
IC50 (HPK1): ≤ 10 nM

CNCc1cc(C)c(-c2cc3c(-c4ccc5c(c4)OCC4CN(C)CCN54)c[nH]c3cn2)c(F)c1 (stereo not shown) [Compound 89]
IC50 (HPK1): ≤ 10 nM

CNCc1cc(F)c(-c2cc3c(-c4ccc5c(c4)OCC4CN(C)CCN54)c[nH]c3cn2)c(F)c1 (stereo not shown) [Compound 90]
IC50 (HPK1): ≤ 10 nM

COc1cccc(F)c1-c1cc2c(-c3ccc4c(c3)OCC3CN(C)CCN43)c[nH]c2cc1C#N (stereo not shown) [Compound 91]
IC50 (HPK1): ≤ 10 nM

CNCc1cc(C)c(-c2cc3c(-c4ccc5c(c4)OCC4CN(C)CCN54)c[nH]c3cc2C#N)c(F)c1 (stereo not shown) [Compound 92]
IC50 (HPK1): ≤ 10 nM

CNCc1cc(F)c(-c2cc3c(-c4ccc5c(c4)OCC4CN(C)CCN54)c[nH]c3cc2C#N)c(F)c1 (stereo not shown) [Compound 93]
IC50 (HPK1): ≤ 10 nM

COc1cccc(F)c1-c1ncc2[nH]cc(-c3ccc4c(c3)OCC3CN(C)CCN43)c2n1 (stereo not shown) [Compound 94]
IC50 (HPK1): 10 to 100 nM

CNCc1cc(C)c(-c2ncc3[nH]cc(-c4ccc5c(c4)OCC4CN(C)CCN54)c3n2)c(F)c1 (stereo not shown) [Compound 95]
IC50 (HPK1): ≤ 10 nM

CNCc1cc(F)c(-c2ncc3[nH]cc(-c4ccc5c(c4)OCC4CN(C)CCN54)c3n2)c(F)c1 (stereo not shown) [Compound 96]
IC50 (HPK1): 10 to 100 nM

COc1cccc(F)c1-c1nc2c(-c3ccc4c(c3)OCC3CN(C)CCN43)c[nH]c2cc1C#N (stereo not shown) [Compound 97]
IC50 (HPK1): 10 to 100 nM

CNCc1cc(C)c(-c2nc3c(-c4ccc5c(c4)OCC4CN(C)CCN54)c[nH]c3cc2C#N)c(F)c1 (stereo not shown) [Compound 98]
IC50 (HPK1): ≤ 10 nM

CNCc1cc(F)c(-c2nc3c(-c4ccc5c(c4)OCC4CN(C)CCN54)c[nH]c3cc2C#N)c(F)c1 (stereo not shown) [Compound 99]
IC50 (HPK1): ≤ 10 nM

COc1cccc(F)c1-c1ccc2[nH]cc(-c3ccc4c(c3)OCC3CN(C)CCN43)c2n1 (stereo not shown) [Compound 100]
IC50 (HPK1): ≤ 10 nM

CNCc1cc(C)c(-c2ccc3[nH]cc(-c4ccc5c(c4)OCC4CN(C)CCN54)c3n2)c(F)c1 (stereo not shown) [Compound 101]
IC50 (HPK1): ≤ 10 nM

CNCc1cc(F)c(-c2ccc3[nH]cc(-c4ccc5c(c4)OCC4CN(C)CCN54)c3n2)c(F)c1 (stereo not shown) [Compound 102]
IC50 (HPK1): ≤ 10 nM

CN1CCN2c3ccc(-c4cnc5[nH]cc(-c6ccc(C(=O)N7CC(N(C)C)C7)cc6)c5c4)cc3OCC2C1 (stereo not shown) [Compound 103]
IC50 (HPK1): ≤ 10 nM

CN1CCN2c3ccc(-c4cnc5[nH]cc(-c6ccc(C(=O)N7CC(O)C7)cc6)c5c4)cc3OCC2C1 (stereo not shown) [Compound 104]
IC50 (HPK1): 10 to 100 nM

CN(C)CCN(C)C(=O)c1ccc(-c2c[nH]c3ncc(-c4ccc5c(c4)OCC4CN(C)CCN54)cc23)cc1 (stereo not shown) [Compound 105]
IC50 (HPK1): ≤ 10 nM

CN1CCN2c3ccc(-c4cnc5[nH]cc(-c6ccc(C(=O)N7CC8(COC8)C7)cc6)c5c4)cc3OCC2C1 (stereo not shown) [Compound 106]
IC50 (HPK1): ≤ 10 nM

CN1CC(CN(C)C(=O)c2ccc(-c3c[nH]c4ncc(-c5ccc6c(c5)OCC5CN(C)CCN65)cc34)cc2)C1 (stereo not shown) [Compound 107]
IC50 (HPK1): ≤ 10 nM

CN1CCN2c3ccc(-c4cnc5[nH]cc(-c6ccc(C(=O)C7CNC7)cc6)c5c4)cc3OCC2C1 (stereo not shown) [Compound 108]
IC50 (HPK1): 10 to 100 nM

CN1CCN2c3ccc(-c4cnc5[nH]cc(-c6ccc(OC7CCNCC7)cc6)c5c4)cc3OCC2C1 (stereo not shown) [Compound 109]
IC50 (HPK1): ≤ 10 nM

CN(C)CCCOc1ccc(-c2c[nH]c3ncc(-c4ccc5c(c4)OCC4CN(C)CCN54)cc23)cc1 (stereo not shown) [Compound 110]
IC50 (HPK1): ≤ 10 nM

CN1CC(C(O)c2ccc(-c3c[nH]c4ncc(-c5ccc6c(c5)OCC5CN(C)CCN65)cc34)cc2)C1 (stereo not shown) [Compound 111]
IC50 (HPK1): ≤ 10 nM

CN1CCN2c3ccc(-c4cnc5[nH]cc(-c6ccc(C(=O)N7CC(O)C7)cc6)c5n4)cc3OCC2C1 (stereo not shown) [Compound 113]
IC50 (HPK1): ≤ 10 nM

CN(C)CCN(C)C(=O)c1ccc(-c2c[nH]c3ncc(-c4ccc5c(c4)OCC4CN(C)CCN54)nc23)cc1 (stereo not shown) [Compound 114]
IC50 (HPK1): ≤ 10 nM

CN1CCN2c3ccc(-c4cnc5[nH]nc(-c6ccc(C(=O)N7CC(N(C)C)C7)cc6)c5c4)cc3OCC2C1 (stereo not shown) [Compound 115]
IC50 (HPK1): ≤ 10 nM

CN1CCN2c3ccc(-c4cnc5[nH]nc(-c6ccc(C(=O)N7CC(O)C7)cc6)c5c4)cc3OCC2C1 (stereo not shown) [Compound 116]
IC50 (HPK1): 10 to 100 nM

CN(C)CCN(C)C(=O)c1ccc(-c2n[nH]c3ncc(-c4ccc5c(c4)OCC4CN(C)CCN54)cc23)cc1 (stereo not shown) [Compound 117]
IC50 (HPK1): ≤ 10 nM

CN1CCN2c3ccc(-c4cnc5[nH]nc(-c6ccc(C(=O)N7CC(N(C)C)C7)cc6)c5n4)cc3OCC2C1 (stereo not shown) [Compound 118]
IC50 (HPK1): ≤ 10 nM

CN1CCN2c3ccc(-c4cnc5[nH]nc(-c6ccc(C(=O)N7CC(O)C7)cc6)c5n4)cc3OCC2C1 (stereo not shown) [Compound 119]
IC50 (HPK1): 10 to 100 nM

CN(C)CCN(C)C(=O)c1ccc(-c2n[nH]c3ncc(-c4ccc5c(c4)OCC4CN(C)CCN54)nc23)cc1 (stereo not shown) [Compound 120]
IC50 (HPK1): ≤ 10 nM

CNCc1cc(C)c(-c2cc3c(-c4ccc5c(c4)NCC4CN(C)CCN54)n[nH]c3cc2C#N)c(F)c1 (stereo not shown) [Compound 121]
IC50 (HPK1): ≤ 10 nM

CNCc1cc(C)c(-c2cc3c(-c4ccc5c(c4)N(C)CC4CN(C)CCN54)n[nH]c3cc2C#N)c(F)c1 (stereo not shown) [Compound 122]
IC50 (HPK1): ≤ 10 nM

CNCc1cc(C)c(-c2cc3c(-c4ccc5c(c4)OCC4CNCCN54)n[nH]c3cc2C#N)c(F)c1 (stereo not shown) [Compound 123]
IC50 (HPK1): ≤ 10 nM

CCN1CCN2c3ccc(-c4n[nH]c5cc(C#N)c(-c6c(C)cc(CNC)cc6F)cc45)cc3OCC2C1 (stereo not shown) [Compound 124]
IC50 (HPK1): ≤ 10 nM

CNCc1cc(C)c(-c2cc3c(-c4ccc5c(c4)OCC4CN(C6CC6)CCN54)n[nH]c3cc2C#N)c(F)c1 (stereo not shown) [Compound 125]
IC50 (HPK1): ≤ 10 nM

CNCc1cc(C)c(-c2cc3c(-c4ccc5c(c4)OCC4CN(C6COC6)CCN54)n[nH]c3cc2C#N)c(F)c1 (stereo not shown) [Compound 126]
IC50 (HPK1): ≤ 10 nM

CNCc1cc(C)c(-c2cc3c(-c4ccc5c(c4)OCC4CN(C6CCN(C)CC6)CCN54)n[nH]c3cc2C#N)c(F)c1 (stereo not shown) [Compound 127]
IC50 (HPK1): ≤ 10 nM

CNCc1cc(C)c(-c2cc3c(-c4ccc5c(c4)OCC4CN(CC(F)(F)F)CCN54)n[nH]c3cc2C#N)c(F)c1 (stereo not shown) [Compound 128]
IC50 (HPK1): ≤ 10 nM

CNCc1cc(C)c(-c2cc3c(-c4ccc5c(c4)OCC4CN(CCC#N)CCN54)n[nH]c3cc2C#N)c(F)c1 (stereo not shown) [Compound 129]
IC50 (HPK1): ≤ 10 nM
